Test results published in patent publication US10906876B2, “Tetrahydroisoquinolines as selective NADPH oxidase 2 inhibitors” (University of Pittsburgh—Of the Commonwealth System of …, priority 2013, dated 2021).
“And” between values parts separate entries of the source, which are not always exact repeats. Equal values may be shown once.

Tests used:
Nox5 = target: T1, Nox5 (Homo sapiens, UniProt Q96PH1); experiment: Nox5 activity in HEK-Nox5 cells, L-012 assay; format: cell-based; conditions: for IC50: HEK-Nox5 cells stimulated with 1 μM PMA and 0.5 ionomycin, L-012, read-out: IC50 of ROS generation, Nox5 (L-012 assay); for Nox5 inhibitory activity: Table 2
T1 construct: expressed in transfected cells; host or cells: HEK-Nox5 cells (gift of D. Fulton)
T1 sequence (Q96PH1 19-737 isoform Q96PH1-3 limits assumed): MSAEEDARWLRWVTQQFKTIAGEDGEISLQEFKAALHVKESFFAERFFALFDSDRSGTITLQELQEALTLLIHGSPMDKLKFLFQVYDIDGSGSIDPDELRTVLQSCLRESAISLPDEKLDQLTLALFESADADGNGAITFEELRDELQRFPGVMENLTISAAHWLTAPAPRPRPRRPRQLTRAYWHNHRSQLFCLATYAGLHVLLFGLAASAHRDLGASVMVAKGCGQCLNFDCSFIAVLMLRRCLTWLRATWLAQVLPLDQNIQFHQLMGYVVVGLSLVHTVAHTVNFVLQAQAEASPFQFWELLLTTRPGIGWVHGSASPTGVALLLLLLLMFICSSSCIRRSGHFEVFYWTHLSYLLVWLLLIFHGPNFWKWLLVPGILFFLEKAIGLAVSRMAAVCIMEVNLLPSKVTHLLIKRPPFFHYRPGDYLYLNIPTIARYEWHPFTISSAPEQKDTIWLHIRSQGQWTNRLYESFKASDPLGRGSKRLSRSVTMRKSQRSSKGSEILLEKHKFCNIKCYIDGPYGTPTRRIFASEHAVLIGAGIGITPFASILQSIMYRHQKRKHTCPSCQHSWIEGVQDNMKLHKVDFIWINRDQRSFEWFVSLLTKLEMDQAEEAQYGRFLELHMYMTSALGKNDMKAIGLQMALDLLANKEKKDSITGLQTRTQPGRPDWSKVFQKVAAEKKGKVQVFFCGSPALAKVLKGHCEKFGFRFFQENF
From the text: (§1) All cell culture reagents were obtained from Invitrogen, unless indicated. COS-22 (COS-7 cells stably expressing human p22^phox) and COS-Nox2 (a.k.a. COS-phox) cells (COS-7 cells stably expressing human p22^phox, Nox2, p47^phox and p67^phox) were kindly provided by Dr. Mary C. Dinauer (Indiana University, School of Medicine) (Price et al., Blood, 2002, 99:2653-2661). COS-22 cells were maintained in Dulbecco's Modified Eagle Medium (DMEM) with 4.5 g/L glucose, L-glutamine and sodium pyruvate containing 10% heat-inactivated fetal bovine serum (FBS), 100 units/ml penicillin and 100 μg/ml streptomycin (complete media) supplemented with 1.8 mg/ml G418 (Calbiochem/EMB Bioscience, Gibbstown, N.J.). COS-Nox2 cells were maintained in complete media supplemented with 1.8 mg/mL G418, 1 μg/mL puromycin (Sigma, St Louis, Mo.) and 0.2 mg/mL hygromycin B (Invitrogen, Carlsbad, Calif.). HEK-Nox5 cells were kindly provided by Dr. David Fulton (Georgia Health Sciences University) and maintained in complete media.
COS-Nox2, COS-Nox1/NOXO1/NOXA1, HEK-Nox5 and COS-22 cells were re-plated in OPTIMEM into 384-well white micro-plates (Greiner-Bio One GmbH, Germany) at a density of 2.5×10^3 cells/well for COS-Nox2 and 5×10^4 cells/well for all others. The cells were incubated at 37° C. in PBS containing 400 μm L-012 for 10 min. […] Since Nox1 was constitutively active, Nox1-derived O2^•− was assessed by comparison to non-transfected cells (Cos22). Luminescence was quantified over time using a Biotek Synergy 4 Hybrid Multi-Mode Microplate Reader. The specificity of L-012 for O2^•− was confirmed by the addition of SOD (150 U/mL).
(§2) All data are expressed as means±SEM. IC50 values were determined using the GraphPad Prism software (GraphPad Software, San Diego, Calif.) for non-linear regression three-parameters, with constrain values of 100 and 0 for top and bottom, respectively, and assumes a Hill slope of 1.

Nox2 = target: T2, Nox2 (Homo sapiens, UniProt P04839); experiment: ROS (H2O2) generation in whole COS-Nox2 cells, Amplex Red assay; format: cell-based; conditions: for IC50: whole COS-Nox2 cells stimulated with 5 μM PMA, Amplex Red; for Nox2 inhibitory activity: Table 2; for Selectivity for Nox2 over other Nox isoforms: cell-based assays for each Nox system
T2 construct: expressed in transfected cells
T2 sequence (P04839 2-570 limits assumed): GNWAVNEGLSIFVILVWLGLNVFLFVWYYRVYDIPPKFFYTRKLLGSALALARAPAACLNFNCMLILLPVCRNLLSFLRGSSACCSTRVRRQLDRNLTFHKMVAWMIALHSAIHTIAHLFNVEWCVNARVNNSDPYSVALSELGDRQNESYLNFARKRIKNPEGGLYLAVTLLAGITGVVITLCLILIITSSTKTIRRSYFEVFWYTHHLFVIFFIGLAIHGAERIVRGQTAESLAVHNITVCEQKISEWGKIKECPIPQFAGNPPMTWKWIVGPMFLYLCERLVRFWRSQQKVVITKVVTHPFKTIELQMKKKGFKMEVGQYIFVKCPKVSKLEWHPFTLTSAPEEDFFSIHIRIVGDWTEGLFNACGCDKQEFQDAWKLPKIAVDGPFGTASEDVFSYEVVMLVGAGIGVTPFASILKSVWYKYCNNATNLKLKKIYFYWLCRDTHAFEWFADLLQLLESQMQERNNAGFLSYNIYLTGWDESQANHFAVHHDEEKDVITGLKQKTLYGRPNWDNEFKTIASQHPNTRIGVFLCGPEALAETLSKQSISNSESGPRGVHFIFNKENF
From the text: as §1
H2O2 production was quantified in intact COS-Nox4 cells by Amplex® Red. Briefly, COS-Nox4 cells (5×10^4 cells/ml) were re-plated into 384-well plate in assay buffer (25 mM Hepes, pH 7.4, containing 0.12 M NaCl, 3 mM KCl, 1 mM MgCl2). The cells were incubated in the presence or absence of drugs at 37° C. in assay buffer supplemented with 0.1 mM Amplex® Red, and 0.32 U/ml of horse radish peroxidase (HRP) for 15 min. Fluorescence measurements were made using a Biotek Synergy 4 Hybrid Multi-Mode Microplate Reader with a 530/25-excitation and a 590/35-emission filter. The reaction was monitored at 37° C. for 1 h. A standard curve of known H2O2 concentrations was included on each plate. Nox4 activity was obtained by calculating the rate of H2O2 production as RFU/min and then subtracting the equivalent value given by non-transfected COS-22 cells. Similarly, H2O2 production by Nox2 cells was also measured by Amplex® Red as described above but in the presence of 150 U/mL of SOD and the reaction was initiated by addition of 5 μM PMA. The rate of H2O2 production in this case was calculated as RFU/min after the subtraction of the equivalent value given by non-stimulated cells. Data are expressed as % of vehicle control.
as §2

Compound | IC50 (Nox5) | Nox5 inhibitory activity (Nox5) | IC50 (Nox2) | Nox2 inhibitory activity (Nox2) | Selectivity for Nox2 over other Nox isoforms (Nox2)
C=C(C)CC1NC2CC(C)(C)C1c1c(Br)cccc12 (racemic) [Compound 7, (±)-(1S,4R,9S)-5-Bromo-3,3-dimethyl-9-(2-methylallyl)-1,2,3,4-tetrahydro-1,4-(epimino-methano)-naphthalene] | 20 ± 3.1 µM | active | 40 µM and 25 to 40 µM |  | 
C=C(C)CC1NC2CC(C)(C)C1c1ccccc12 (racemic) [Compound 8, (±)-(1S,4R,9S)-3,3-Dimethyl-9-(2-methylallyl)-1,2,3,4-tetrahydro-1,4-(epiminomethano)-naphthalene] | > 100 µM | inactive | > 100 µM | inactive | 
C=C(C)CC1C2c3c(Br)cccc3C(CC2(C)C)N1Cc1ccnc2ccccc12 (racemic) [Compound 11b, (±)-(1S,4R,9S)-5-Bromo-3,3-dimethyl-9-(2-methylallyl)-10-(quinolin-4-ylmethyl)-1,2,3,4-tetra-hydro-1,4-(epiminomethano)naphthalene] | > 100 µM |  | > 100 µM | completely abolished | 
C=C(C)CC1C2c3c(Br)cccc3C(CC2(C)C)N1Cc1cc(C)on1 (racemic) [Compound 11e, (±)-3-(1S,4R,9S)-5-Bromo-3,3-dimethyl-9-(2-methylallyl)-1,2,3,4-tetrahydro-1,4-(epimino-methano) naphthalen-10-yl)methyl)-5-methylisoxazole] | 31 ± 11 µM | inhibited | 12 ± 0.5 µM |  | 
C=C(C)CC1C2c3c(Br)cccc3C(CC2(C)C)N1CCCCC (racemic) [Compound 11g, (±)-(1S,4R,9S)-5-Bromo-3,3-dimethyl-9-(2-methylallyl-10-pentyl-1,2,3,4-tetrahydro-1,4-(epiminomethano)naphthalene] | > 100 µM | virtually no effect | 20 ± 1.9 µM |  | specificity for Nox2 over Nox1, 4, and 5
C=C(C)CC1C2c3c(Br)cccc3C(CC2(C)C)N1Cc1cccs1 (racemic) [Compound 11h, (±)-(1S,4R,9S)-5-Bromo-3,3-dimethyl-9-(2-methylallyl)-10-(thiophen-2-ylmethyl)-1,2,3,4-tetrahydro-1,4-(epiminomethano)naphthalene] | > 100 µM | virtually no effect | 32 ± 1.9 µM |  | specificity for Nox2 over Nox1, 4, and 5
CC(C)CC1NC2CC(C)(C)C1c1c(Br)cccc12 (racemic) [Compound 13] | 18 ± 1 µM | retained inhibitory activity | 78 ± 19 µM | retained inhibitory activity | 

Results, then the molecule that gave them:

IC50 (Nox5) | Nox5 inhibitory activity (Nox5) | IC50 (Nox2) | Nox2 inhibitory activity (Nox2) | Selectivity for Nox2 over other Nox isoforms (Nox2) | Compound
50 ± 9 µM | inhibited | 30 ± 7.5 µM |  |  | C=C(C)CC1C2c3ccccc3C(CC2(C)C)N1Cc1cccc(F)c1 (racemic) [Compound 11a, (±)-(1S,4R,9S)-10-(3-Fluorobenzyl)-3,3-dimethyl-9-(2-methylallyl)-1,2,3,4-tetrahydro-1,4-(epiminomethano)naphthalene]
> 100 µM |  | > 100 µM | completely abolished |  | C=C(C)CC1C2c3c(Br)cccc3C(CC2(C)C)N1Cc1c[nH]c2ccccc12 (racemic) [Compound 11c, (±)-(1S,4R,9S)-10-((1H-Indol-3-yl)methyl)-5-bromo-3,3-dimethyl-9-(2-methylallyl)-1,2,3,4-tetrahydro-1,4-(epiminomethano)naphthalene]
> 100 µM |  | 40 µM | decreased |  | C=C(C)CC1C2c3c(Br)cccc3C(CC2(C)C)N1Cc1ccc2c(c1)OCO2 (racemic) [Compound 11d, (±)-(1S,4R,9S)-10-(Benzo[d][1,3]dioxol-5-ylmethyl)-5-bromo-3,3-dimethyl-9-(2-methylallyl)-1,2,3,4-tetrahydro-1,4-(epiminomethano)naphthalene]
79 ± 30 µM | inhibited | 51 µM |  |  | C=C(C)CC1C2c3c(Br)cccc3C(CC2(C)C)N1Cc1cccc(F)c1 (racemic) [Compound 11f, (±)-(1S,4R,9S)-5-Bromo-10-(3-fluorobenzyl)-3,3-dimethyl-9-(2-methylallyl)-1,2,3,4-tetrahydro-1,4-(epiminomethano)naphthalene]
14 ± 0.6 µM | comparable | 64 ± 35 µM | comparable | greater selectivity over Nox1 | C=C(C)CC1NC2CC(C)(C)C1c1c(-c3ccc(Cl)c(Cl)c3)cccc12 (racemic) [Compound 12a, (±)-(1S,4R,9S)-5-(3,4-Dichlorophenyl)-3,3-dimethyl-9-(2-methylallyl)-1,2,3,4-tetrahydro-1,4-(epiminomethano)naphthalene]
> 100 µM |  | > 100 µM | inactive |  | C=C(C)CC1C2c3c(-c4ccc(Cl)c(Cl)c4)cccc3C(CC2(C)C)N1Cc1ccc2c(c1)OCO2 (racemic) [Compound 12b, (±)-(1S,4R,9S)-10-(Benzo[d][1,3]dioxol-5-ylmethyl)-5-(3,4-dichlorophenyl)-3,3-dimethyl-9-(2-methylallyl)-1,2,3,4-tetrahydro-1,4-(epiminomethano)-naphthalene]
> 100 µM |  | 79 µM | inactive |  | C=C(C)CC1C2c3c(-c4ccc(Cl)c(Cl)c4)cccc3C(CC2(C)C)N1CCCCC (racemic) [Compound 12c]
